system: HL-60(TB); assay: Anticancer activity against human HL-60(TB) cells assessed as cell growth inhibition at 10 uM incubated for 48 hrs by SRB assay relative to control; format: functional; conditions: read-out: GI

| SMILES | inhibition of growth at 10 µM [%] |
| --- | --- |
| Cc1nn(-c2ccccc2)cc1/C=N/Nc1nc(Nc2ccccc2)nc(Nc2ccc(S(N)(=O)=O)cc2)n1 | 96 |

system: SK-OV-3; assay: Anticancer activity against human SK-OV-3 cells assessed as cell growth inhibition at 10 uM incubated for 48 hrs by SRB assay relative to control; format: functional; conditions: read-out: GI

| SMILES | inhibition of growth at 10 µM [%] |
| --- | --- |
| Cc1nn(-c2ccccc2)cc1/C=N/Nc1nc(Nc2ccccc2)nc(Nc2ccc(S(N)(=O)=O)cc2)n1 | 49 |

system: NCI-H522; assay: Anticancer activity against human NCI-H522 cells assessed as cell growth inhibition at 10 uM incubated for 48 hrs by SRB assay relative to control; format: functional; conditions: read-out: GI

| SMILES | inhibition of growth at 10 µM [%] |
| --- | --- |
| Cc1nn(-c2ccccc2)cc1/C=N/Nc1nc(Nc2ccccc2)nc(Nc2ccc(S(N)(=O)=O)cc2)n1 | 100 |

system: HCT-15; assay: Anticancer activity against human HCT-15 cells assessed as cell growth inhibition at 10 uM incubated for 48 hrs by SRB assay relative to control; format: functional; conditions: read-out: GI

| SMILES | inhibition of growth at 10 µM [%] |
| --- | --- |
| Cc1nn(-c2ccccc2)cc1/C=N/Nc1nc(Nc2ccccc2)nc(Nc2ccc(S(N)(=O)=O)cc2)n1 | 92 |

system: 786-0; assay: Anticancer activity against human 786-0 cells assessed as cell growth inhibition at 10 uM incubated for 48 hrs by SRB assay relative to control; format: functional; conditions: read-out: GI

| SMILES | inhibition of growth at 10 µM [%] |
| --- | --- |
| Cc1nn(-c2ccccc2)cc1/C=N/Nc1nc(Nc2ccccc2)nc(Nc2ccc(S(N)(=O)=O)cc2)n1 | 147 |

system: SN12C; assay: Anticancer activity against human SN12C cells assessed as cell growth inhibition at 10 uM incubated for 48 hrs by SRB assay relative to control; format: functional; conditions: read-out: GI

| SMILES | inhibition of growth at 10 µM [%] |
| --- | --- |
| Cc1nn(-c2ccccc2)cc1/C=N/Nc1nc(Nc2ccccc2)nc(Nc2ccc(S(N)(=O)=O)cc2)n1 | 100 |

system: Hs-578T; assay: Anticancer activity against human Hs-578T cells assessed as cell growth inhibition at 10 uM incubated for 48 hrs by SRB assay relative to control; format: functional; conditions: read-out: GI

| SMILES | inhibition of growth at 10 µM [%] |
| --- | --- |
| Cc1nn(-c2ccccc2)cc1/C=N/Nc1nc(Nc2ccccc2)nc(Nc2ccc(S(N)(=O)=O)cc2)n1 | 86 |

system: LOX IMVI; assay: Anticancer activity against human LOX IMVI cells assessed as cell growth inhibition at 10 uM incubated for 48 hrs by SRB assay relative to control; format: functional; conditions: read-out: GI

| SMILES | inhibition of growth at 10 µM [%] |
| --- | --- |
| Cc1nn(-c2ccccc2)cc1/C=N/Nc1nc(Nc2ccccc2)nc(Nc2ccc(S(N)(=O)=O)cc2)n1 | 125 |

system: OVCAR-8; assay: Anticancer activity against human OVCAR-8 cells assessed as cell growth inhibition at 10 uM incubated for 48 hrs by SRB assay relative to control; format: functional; conditions: read-out: GI

| SMILES | inhibition of growth at 10 µM [%] |
| --- | --- |
| Cc1nn(-c2ccccc2)cc1/C=N/Nc1nc(Nc2ccccc2)nc(Nc2ccc(S(N)(=O)=O)cc2)n1 | 81 |

system: RPMI-8226; assay: Anticancer activity against human RPMI-8226 cells assessed as cell growth inhibition at 10 uM incubated for 48 hrs by SRB assay relative to control; format: functional; conditions: read-out: GI

| SMILES | inhibition of growth at 10 µM [%] |
| --- | --- |
| Cc1nn(-c2ccccc2)cc1/C=N/Nc1nc(Nc2ccccc2)nc(Nc2ccc(S(N)(=O)=O)cc2)n1 | 123 |

system: SR; assay: Anticancer activity against human SR cells assessed as cell growth inhibition at 10 uM incubated for 48 hrs by SRB assay relative to control; format: functional; conditions: read-out: GI

| SMILES | inhibition of growth at 10 µM [%] |
| --- | --- |
| Cc1nn(-c2ccccc2)cc1/C=N/Nc1nc(Nc2ccccc2)nc(Nc2ccc(S(N)(=O)=O)cc2)n1 | 66 |

system: SNB-75; assay: Anticancer activity against human SNB-75 cells assessed as cell growth inhibition at 10 uM incubated for 48 hrs by SRB assay relative to control; format: functional; conditions: read-out: GI

| SMILES | inhibition of growth at 10 µM [%] |
| --- | --- |
| Cc1nn(-c2ccccc2)cc1/C=N/Nc1nc(Nc2ccccc2)nc(Nc2ccc(S(N)(=O)=O)cc2)n1 | 55 |

system: NCI-H23; assay: Anticancer activity against human NCI-H23 cells assessed as cell growth inhibition at 10 uM incubated for 48 hrs by SRB assay relative to control; format: functional; conditions: read-out: GI

| SMILES | inhibition of growth at 10 µM [%] |
| --- | --- |
| Cc1nn(-c2ccccc2)cc1/C=N/Nc1nc(Nc2ccccc2)nc(Nc2ccc(S(N)(=O)=O)cc2)n1 | 114 |

system: UACC-62; assay: Anticancer activity against human UACC-62 cells assessed as cell growth inhibition at 10 uM incubated for 48 hrs by SRB assay relative to control; format: functional; conditions: read-out: GI

| SMILES | inhibition of growth at 10 µM [%] |
| --- | --- |
| Cc1nn(-c2ccccc2)cc1/C=N/Nc1nc(Nc2ccccc2)nc(Nc2ccc(S(N)(=O)=O)cc2)n1 | 127 |

system: Malme-3M; assay: Anticancer activity against human Malme-3M cells assessed as cell growth inhibition at 10 uM incubated for 48 hrs by SRB assay relative to control; format: functional; conditions: read-out: GI

| SMILES | inhibition of growth at 10 µM [%] |
| --- | --- |
| Cc1nn(-c2ccccc2)cc1/C=N/Nc1nc(Nc2ccccc2)nc(Nc2ccc(S(N)(=O)=O)cc2)n1 | 125 |

system: T47D; assay: Anticancer activity against human T47D cells assessed as cell growth inhibition at 10 uM incubated for 48 hrs by SRB assay relative to control; format: functional; conditions: read-out: GI

| SMILES | inhibition of growth at 10 µM [%] |
| --- | --- |
| Cc1nn(-c2ccccc2)cc1/C=N/Nc1nc(Nc2ccccc2)nc(Nc2ccc(S(N)(=O)=O)cc2)n1 | 81 |

system: ACHN; assay: Anticancer activity against human ACHN cells assessed as cell growth inhibition at 10 uM incubated for 48 hrs by SRB assay relative to control; format: functional; conditions: read-out: GI

| SMILES | inhibition of growth at 10 µM [%] |
| --- | --- |
| Cc1nn(-c2ccccc2)cc1/C=N/Nc1nc(Nc2ccccc2)nc(Nc2ccc(S(N)(=O)=O)cc2)n1 | 100 |

system: EKVX; assay: Anticancer activity against human EKVX cells assessed as cell growth inhibition at 10 uM incubated for 48 hrs by SRB assay relative to control; format: functional; conditions: read-out: GI

| SMILES | inhibition of growth at 10 µM [%] |
| --- | --- |
| Cc1nn(-c2ccccc2)cc1/C=N/Nc1nc(Nc2ccccc2)nc(Nc2ccc(S(N)(=O)=O)cc2)n1 | 81 |

system: SF-539; assay: Anticancer activity against human SF-539 cells assessed as cell growth inhibition at 10 uM incubated for 48 hrs by SRB assay relative to control; format: functional; conditions: read-out: GI

| SMILES | inhibition of growth at 10 µM [%] |
| --- | --- |
| Cc1nn(-c2ccccc2)cc1/C=N/Nc1nc(Nc2ccccc2)nc(Nc2ccc(S(N)(=O)=O)cc2)n1 | 28 |

system: K562; assay: Anticancer activity against human K562 cells assessed as cell growth inhibition at 10 uM incubated for 48 hrs by SRB assay relative to control; format: functional; conditions: read-out: GI

| SMILES | inhibition of growth at 10 µM [%] |
| --- | --- |
| Cc1nn(-c2ccccc2)cc1/C=N/Nc1nc(Nc2ccccc2)nc(Nc2ccc(S(N)(=O)=O)cc2)n1 | 90 |

— ChEMBL document CHEMBL5154747, “Discovery of new carbonic anhydrase IX inhibitors as anticancer agents by toning the hydrophobic and hydrophilic rims of the active site to encounter the dual-tail approach” (Eur J Med Chem, 2022)
